Columns and labels:
Assay type in all cases: functional
Athelia rolfsii [1] = test: Growth inhibition of Athelia rolfsii at 1000 ppm by agar dilution method; conditions: Agroathelia rolfsii; read-out: GI
Pythium [2] = test: Growth inhibition of Pythium sp. at 1000 ppm by agar dilution method; conditions: read-out: GI
Athelia rolfsii [3] = test: Growth inhibition of Athelia rolfsii at 100 ppm by agar dilution method; conditions: Agroathelia rolfsii; read-out: GI
Pythium [4] = test: Growth inhibition of Pythium sp. at 100 ppm by agar dilution method; conditions: read-out: GI
Athelia rolfsii [5] = test: Growth inhibition of Athelia rolfsii at 10 ppm by agar dilution method; conditions: Agroathelia rolfsii; read-out: GI
Athelia rolfsii [6] = test: Growth inhibition of Athelia rolfsii at 50 ppm by agar dilution method; conditions: Agroathelia rolfsii; read-out: GI
Pythium [7] = test: Growth inhibition of Pythium sp. at 10 ppm by agar dilution method; conditions: read-out: GI
Pythium [8] = test: Growth inhibition of Pythium sp. at 50 ppm by agar dilution method; conditions: read-out: GI

SMILES | inhibition of growth at 1000 ppm (Athelia rolfsii [1]) | inhibition of growth at 1000 ppm (Pythium [2]) | inhibition of growth at 100 ppm (Athelia rolfsii [3]) | inhibition of growth at 100 ppm (Pythium [4]) | inhibition of growth at 10 ppm (Athelia rolfsii [5]) | inhibition of growth at 50 ppm (Athelia rolfsii [6]) | inhibition of growth at 10 ppm (Pythium [7]) | inhibition of growth at 50 ppm (Pythium [8])
CCCCCCCOP1(=S)OCc2ccccc2O1 (stereo not given) | 100% | 100% | 52.6% | 42.4% |  |  |  | 
CCCCCCCCCCCCCCCOP1(=S)OCc2ccccc2O1 (stereo not given) | 32.3% | 86% | 6% | 24.9% |  |  |  | 
CCc1ccc2c(c1)COP(=O)(Oc1ccccc1)O2 (stereo not given) | 100% | 98.7% | 100% | 89.1% | 26.6% | 57.6% | 38.5% | 78.6%
Cc1ccc(C(C)C)c(OP2(=S)OCc3ccccc3O2)c1 (stereo not given) | 99.8% | 100% | 27.7% | 45.2% |  |  |  | 
Cc1ccc(OP2(=S)OCc3cc(C(C)C)ccc3O2)c(C(C)C)c1 (stereo not given) | 71.3% | 85.9% | 62.5% | 26.8% |  |  |  | 
C=CCc1ccc(OP2(=S)OCc3ccccc3O2)c(OC)c1 (stereo not given) | 100% | 87.4% | 25.5% | 28.6% |  |  |  | 
CCc1ccc2c(c1)COP(=S)(Oc1cc(C)ccc1C(C)C)O2 (stereo not given) | 100% | 96.8% | 30.4% | 41.7% |  |  |  | 
Cc1ccc(C(C)C)c(OP2(=S)OCc3ccccc3O2)c1Cl (stereo not given) | 85.5% | 97.4% | 12.3% | 27.9% |  |  |  | 
COP1(=S)OCc2cc(C(C)C)ccc2O1 (stereo not given) | 100% | 82.6% | 96.9% | 71.1% | 62% | 92.5% | 0% | 50%
S=P1(OCCc2ccccc2)OCc2ccccc2O1 (stereo not given) | 100% | 100% | 81.6% | 70.1% |  |  |  | 
CCCCCCCCCCCCCOP1(=S)OCc2ccccc2O1 (stereo not given) | 100% | 100% | 3.1% | 6.3% |  |  |  | 
CCCCCCCCCCCOP1(=S)OCc2ccccc2O1 (stereo not given) | 88.1% | 100% | 25% | 0% |  |  |  | 
CCc1ccc2c(c1)COP(=S)(OCCc1ccccc1)O2 (stereo not given) | 100% | 100% | 57% | 95.4% |  |  |  | 
CCc1ccc2c(c1)COP(=S)(Oc1ccc(C)cc1C(C)C)O2 (stereo not given) | 100% | 100% | 88.6% | 49.5% |  |  |  | 
CCc1ccc2c(c1)COP(=S)(OC)O2 (stereo not given) | 100% | 96% | 100% | 91.1% | 24.6% | 92.4% | 1.9% | 64.4%
CC(C)c1ccc2c(c1)COP(=S)(OCCc1ccccc1)O2 (stereo not given) | 100% | 100% | 30.6% | 74.6% |  |  |  | 
C=CCc1ccc(OP2(=S)OCc3cc(C(C)C)ccc3O2)c(OC)c1 (stereo not given) | 71.2% | 83.9% | 18.8% | 22.9% |  |  |  | 
Cc1ccc(OP2(=S)OCc3ccccc3O2)c(C(C)C)c1 (stereo not given) | 83.3% | 80.8% | 37.3% | 0% |  |  |  | 
CC(C)=CCCC(C)CCOP1(=S)OCc2ccccc2O1 (stereo not given) | 100% | 96% | 36.6% | 38.8% |  |  |  | 
COP1(=S)OCc2ccccc2O1 (stereo not given) [SALITHION] | 100% | 100% | 60.7% | 74.8% |  |  |  | 
O=P1(Oc2ccccc2)OCc2ccccc2O1 (stereo not given) | 88.7% | 100% | 2.1% | 76% |  |  |  | 
Cc1ccc(C(C)C)c(OP2(=S)OCc3cc(C(C)C)ccc3O2)c1 (stereo not given) | 84.6% | 85.9% | 61.9% | 33.8% |  |  |  | 
